Data: PubChem BioAssay (NCI)
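Cells were grown in 96-well plates and exposed to each compound for 48 hours at five concentrations; endpoints were interpolated linearly between bracketing concentrations, or set to the highest concentration if not reached. TGI is the concentration that stops growth completely.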

Experiments:
Experiment in all cases: NCI tumour cell line growth inhibition, 48 h
[1] = system: NCI-H226 lung
[2] = system: RPMI-8226 leukemia
[3] = system: IGROV1 ovarian
[4] = system: HCC-2998 colon
[5] = system: CCRF-CEM leukemia
[6] = system: HOP-92 NSCLC
[7] = system: LXFL 529 NSCLC
[8] = system: M19-MEL melanoma
[9] = system: MALME-3M melanoma
[10] = system: 786-0 renal
[11] = system: T-47D breast
[12] = system: NCI-H460 lung
[13] = system: BT-549 breast
[14] = system: A498 renal
[15] = system: SF-268 CNS
[16] = system: OVCAR-8 ovarian
[17] = system: SNB-78 CNS
[18] = system: DMS 273 small cell lung
[19] = system: RXF 393 renal
[20] = system: SF-295 CNS
[21] = system: DU-145 prostate
[22] = system: SR leukemia
[23] = system: OVCAR-3 ovarian
[24] = system: U251 CNS
[25] = system: SNB-75 CNS
[26] = system: UACC-257 melanoma
[27] = system: COLO 205 colon
[28] = system: MDA-MB-435
[29] = system: NCI-H23 lung
[30] = system: MDA-N
[31] = system: OVCAR-5 ovarian
[32] = system: EKVX NSCLC
[33] = system: HL-60(TB) leukemia
[34] = system: DMS 114 small cell lung
[35] = system: HCT-15 colon
[36] = system: CAKI-1 renal
[37] = system: SK-MEL-2 melanoma
[38] = system: NCI/ADR-RES ovarian
[39] = system: XF 498 CNS
[40] = system: MCF7 breast
[41] = system: HS 578T breast
[42] = system: ACHN renal
[43] = system: PC-3 prostate
[44] = system: SK-MEL-28 melanoma
[45] = system: UACC-62 melanoma
[46] = system: LOX IMVI melanoma
[47] = system: UO-31 renal
[48] = system: HT29 colon
[49] = system: SN12C renal
[50] = system: SW-620 colon
[51] = system: TK-10 renal
[52] = system: DLD-1 colon
[53] = system: KM20L2 colon
[54] = system: K-562 leukemia
[55] = system: A549 NSCLC
[56] = system: SK-OV-3 ovarian
[57] = system: OVCAR-4 ovarian
[58] = system: MOLT-4 leukemia
[59] = system: KM12 colon
[60] = system: NCI-H522 lung
[61] = system: MDA-MB-231 breast
[62] = system: SNB-19 CNS
[63] = system: SK-MEL-5 melanoma
[64] = system: M14 melanoma
[65] = system: HCT-116 colon
[66] = system: HOP-62 NSCLC
[67] = system: SF-539 CNS

O=c1c2ccccc2sc2nc(CCl)nn12
TGI [1]: > 100 µM
TGI [2]: > 100 µM
TGI [3]: 49.5 µM
TGI [4]: 31.4 µM
TGI [5]: > 100 µM
TGI [6]: 14.8 µM
TGI [7]: 62.5 µM
TGI [8]: > 62.8 µM
TGI [9]: 49.4 µM
TGI [10]: 34.1 µM
TGI [11]: 19.9 µM
TGI [12]: 16.5 µM
TGI [13]: > 91.6 µM
TGI [14]: 8.42 µM
TGI [15]: 60.6 µM
TGI [16]: > 100 µM
TGI [17]: > 100 µM
TGI [18]: 22.2 µM
TGI [19]: 24.5 µM
TGI [20]: > 82.9 µM
TGI [21]: 21.2 µM
TGI [22]: 37.7 µM
TGI [23]: > 100 µM
TGI [24]: > 100 µM
TGI [25]: 55.2 µM
TGI [26]: 32.9 µM
TGI [27]: 30.2 µM
TGI [28]: 29.6 µM
TGI [29]: 28.5 µM
TGI [30]: 17.3 µM
TGI [31]: > 100 µM
TGI [32]: 29.1 µM
TGI [33]: 44.3 µM
TGI [34]: 48.6 µM
TGI [35]: 18.7 µM
TGI [36]: 22.3 µM
TGI [37]: > 100 µM
TGI [38]: > 100 µM
TGI [39]: 1.82 µM
TGI [40]: 36.3 µM
TGI [41]: 38.1 µM
TGI [42]: 21.6 µM
TGI [43]: 10.7 µM
TGI [44]: 28.3 µM
TGI [45]: 17 µM
TGI [46]: > 100 µM
TGI [47]: 22.8 µM
TGI [48]: 66 µM
TGI [49]: 29.4 µM
TGI [50]: 45.6 µM
TGI [51]: 25.4 µM
TGI [52]: 21.3 µM
TGI [53]: 38 µM
TGI [54]: 28.9 µM
TGI [55]: 93 µM
TGI [56]: 37.5 µM
TGI [57]: > 100 µM
TGI [58]: > 100 µM
TGI [59]: > 100 µM
TGI [60]: 67.8 µM
TGI [61]: 23.4 µM
TGI [62]: > 100 µM
TGI [63]: > 100 µM
TGI [64]: 60.3 µM
TGI [65]: 16.3 µM
TGI [66]: > 100 µM
TGI [67]: > 80.4 µM

C[N+](C)(C)CC1CCc2ccccc2C1=O (centres undefined)
TGI [1]: 43.3 µM
TGI [2]: 18.4 µM
TGI [3]: 28.7 µM
TGI [4]: 28.8 µM
TGI [5]: > 37.9 µM
TGI [6]: 15.9 µM
TGI [7]: 8.54 µM
TGI [8]: 30.8 µM
TGI [9]: 3.68 µM
TGI [10]: 19.2 µM
TGI [11]: 26.2 µM
TGI [12]: 36.7 µM
TGI [13]: 29.3 µM
TGI [14]: 50.4 µM
TGI [15]: 47.4 µM
TGI [16]: 33.5 µM
TGI [17]: 49.4 µM
TGI [18]: 15.1 µM
TGI [19]: 29.6 µM
TGI [20]: 49.2 µM
TGI [21]: 32.6 µM
TGI [22]: 9.23 µM
TGI [23]: 11.8 µM
TGI [24]: 10.2 µM
TGI [25]: 30.7 µM
TGI [26]: 27.1 µM
TGI [27]: 19.3 µM
TGI [28]: 11 µM
TGI [29]: 29.2 µM
TGI [30]: 12.4 µM
TGI [31]: 29.7 µM
TGI [32]: 18.2 µM
TGI [33]: 27.1 µM
TGI [34]: 31 µM
TGI [35]: 6.61 µM
TGI [36]: 9.31 µM
TGI [37]: 31.2 µM
TGI [38]: 42.1 µM
TGI [39]: 5.56 µM
TGI [40]: 5.62 µM
TGI [41]: 35.4 µM
TGI [42]: 14.4 µM
TGI [43]: 29.1 µM
TGI [44]: 16.9 µM
TGI [45]: 12 µM
TGI [46]: 41.5 µM
TGI [47]: 32.7 µM
TGI [48]: 15.2 µM
TGI [49]: 16.3 µM
TGI [50]: 3.34 µM
TGI [51]: 30.5 µM
TGI [52]: 17 µM
TGI [53]: 38.2 µM
TGI [54]: 21.9 µM
TGI [55]: 52.3 µM
TGI [56]: 32.8 µM
TGI [57]: 9.67 µM
TGI [58]: 7.63 µM
TGI [59]: 24.8 µM
TGI [60]: 0.318 µM
TGI [61]: 15.8 µM
TGI [62]: 28.9 µM
TGI [63]: 29.7 µM
TGI [64]: 17.9 µM
TGI [65]: 18.9 µM
TGI [66]: 49.2 µM
TGI [67]: 29.9 µM
